Data as given in the supplement of paper PMC10307832.

Legend:
Experiment in all cases: relative viability (nuclei count vs DMSO), 5 days (fraction); higher = more cells survive
[1] = system: NCI-H520
In short: (§1)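 Lung cancer cell lines, seeded in 1536-well plates, were treated the following day by pin tool with a single drug or with five library-drug doses (not always all listed) in √10 steps on top of a fixed anchor-drug dose. Cells were fixed and nuclei stained in one step after 5 days, and nuclei were counted. Relative viability is the nuclei count for treated wells divided by that for vehicle wells, reported as medians of duplicate plates.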

[2] = system: PC-14
In short: as §1

[3] = system: NCI-H2347
In short: as §1

[4] = system: LXF-289
In short: as §1

[5] = system: NCI-H1915
In short: as §1

[6] = system: NCI-H322M
In short: as §1

[7] = system: NCI-H1563
In short: as §1

[8] = system: LCLC-103H
In short: as §1

[9] = system: NCI-H1755
In short: as §1

[10] = system: NCI-H3122
In short: as §1

[11] = system: NCI-H727
In short: as §1

[12] = system: NCI-H1651
In short: as §1

[13] = system: NCI-H460
In short: as §1

[14] = system: NCI-H661
In short: as §1

[15] = system: NCI-H1792
In short: as §1

[16] = system: NCI-H441
In short: as §1

[17] = system: NCI-H1355
In short: as §1

[18] = system: RERF-LC-KJ
In short: as §1

[19] = system: NCI-H596
In short: as §1

[20] = system: SK-MES-1
In short: as §1

Compound: CC(=O)O[C@@]12CO[C@@H]1C[C@H](O)[C@@]1(C)C(=O)[C@H](O)C3=C(C)[C@@H](OC(=O)[C@H](O)[C@@H](NC(=O)OC(C)(C)C)c4ccccc4)C[C@@](O)([C@@H](OC(=O)c4ccccc4)[C@H]21)C3(C)C [Docetaxel] + CC(C)C[C@H](NC(=O)[C@H](Cc1ccccc1)NC(=O)c1cnccn1)B(O)O [Bortezomib] (partner 0.002 µM)
- relative viability ([1]; first compound 0.0002 µM): 0.45
- relative viability ([1]; first compound 0.000632 µM): 0.233
- relative viability ([1]; first compound 0.002 µM): 0.251
- relative viability ([1]; first compound 0.006325 µM): 0.172
- relative viability ([1]; first compound 0.02 µM): 0.108
- relative viability ([2]; first compound 0.0002 µM): 0.826
- relative viability ([2]; first compound 0.000632 µM): 0.803
- relative viability ([2]; first compound 0.002 µM): 0.132
- relative viability ([2]; first compound 0.006325 µM): 0.103
- relative viability ([2]; first compound 0.02 µM): 0.0579
- relative viability ([3]; first compound 0.0002 µM): 0.805
- relative viability ([3]; first compound 0.000632 µM): 0.832
- relative viability ([3]; first compound 0.002 µM): 0.326
- relative viability ([3]; first compound 0.006325 µM): 0.497
- relative viability ([3]; first compound 0.02 µM): 0.575
- relative viability ([4]; first compound 0.0002 µM): 0.995
- relative viability ([4]; first compound 0.000632 µM): 0.81
- relative viability ([4]; first compound 0.002 µM): 0.594
- relative viability ([4]; first compound 0.006325 µM): 0.133
- relative viability ([4]; first compound 0.02 µM): 0.0991
- relative viability ([5]; first compound 0.0002 µM): 0.905
- relative viability ([5]; first compound 0.000632 µM): 0.95
- relative viability ([5]; first compound 0.002 µM): 0.577
- relative viability ([5]; first compound 0.006325 µM): 0.147
- relative viability ([5]; first compound 0.02 µM): 0.116
- relative viability ([6]; first compound 0.0002 µM): 1.11
- relative viability ([6]; first compound 0.000632 µM): 1.22
- relative viability ([6]; first compound 0.002 µM): 1.05
- relative viability ([6]; first compound 0.006325 µM): 0.602
- relative viability ([6]; first compound 0.02 µM): 0.469
- relative viability ([7]; first compound 0.0002 µM): 0.912
- relative viability ([7]; first compound 0.000632 µM): 1.02
- relative viability ([7]; first compound 0.002 µM): 0.989
- relative viability ([7]; first compound 0.006325 µM): 0.741
- relative viability ([7]; first compound 0.02 µM): 0.582
- relative viability ([8]; first compound 0.0002 µM): 1.15
- relative viability ([8]; first compound 0.000632 µM): 1.12
- relative viability ([8]; first compound 0.002 µM): 0.714
- relative viability ([8]; first compound 0.006325 µM): 0.589
- relative viability ([8]; first compound 0.02 µM): 0.402
- relative viability ([9]; first compound 0.0002 µM): 0.984
- relative viability ([9]; first compound 0.000632 µM): 0.743
- relative viability ([9]; first compound 0.002 µM): 0.45
- relative viability ([9]; first compound 0.006325 µM): 0.368
- relative viability ([9]; first compound 0.02 µM): 0.315
- relative viability ([10]; first compound 0.0002 µM): 1.04
- relative viability ([10]; first compound 0.000632 µM): 0.907
- relative viability ([10]; first compound 0.002 µM): 0.864
- relative viability ([10]; first compound 0.006325 µM): 0.368
- relative viability ([10]; first compound 0.02 µM): 0.227
- relative viability ([11]; first compound 0.0002 µM): 0.795
- relative viability ([11]; first compound 0.000632 µM): 0.855
- relative viability ([11]; first compound 0.002 µM): 0.474
- relative viability ([11]; first compound 0.006325 µM): 0.473
- relative viability ([11]; first compound 0.02 µM): 0.483
- relative viability ([12]; first compound 0.0002 µM): 0.802
- relative viability ([12]; first compound 0.000632 µM): 0.926
- relative viability ([12]; first compound 0.002 µM): 0.744
- relative viability ([12]; first compound 0.006325 µM): 0.22
- relative viability ([12]; first compound 0.02 µM): 0.137
- relative viability ([13]; first compound 0.0002 µM): 0.959
- relative viability ([13]; first compound 0.000632 µM): 0.735
- relative viability ([13]; first compound 0.002 µM): 0.0916
- relative viability ([13]; first compound 0.006325 µM): 0.0162
- relative viability ([13]; first compound 0.02 µM): 0.0121
- relative viability ([14]; first compound 0.0002 µM): 0.702
- relative viability ([14]; first compound 0.000632 µM): 0.784
- relative viability ([14]; first compound 0.002 µM): 0.68
- relative viability ([14]; first compound 0.006325 µM): 0.634
- relative viability ([14]; first compound 0.02 µM): 0.224
- relative viability ([15]; first compound 0.0002 µM): 0.951
- relative viability ([15]; first compound 0.000632 µM): 0.82
- relative viability ([15]; first compound 0.002 µM): 0.6
- relative viability ([15]; first compound 0.02 µM): 0.12
- relative viability ([16]; first compound 0.0002 µM): 0.449
- relative viability ([16]; first compound 0.000632 µM): 0.276
- relative viability ([16]; first compound 0.002 µM): 0.208
- relative viability ([16]; first compound 0.006325 µM): 0.188
- relative viability ([16]; first compound 0.02 µM): 0.179
- relative viability ([17]; first compound 0.0002 µM): 1.2
- relative viability ([17]; first compound 0.000632 µM): 1.14
- relative viability ([17]; first compound 0.002 µM): 0.673
- relative viability ([17]; first compound 0.006325 µM): 0.302
- relative viability ([17]; first compound 0.02 µM): 0.224
- relative viability ([18]; first compound 0.0002 µM): 0.967
- relative viability ([18]; first compound 0.000632 µM): 0.841
- relative viability ([18]; first compound 0.002 µM): 0.499
- relative viability ([18]; first compound 0.006325 µM): 0.251
- relative viability ([18]; first compound 0.02 µM): 0.198
- relative viability ([19]; first compound 0.0002 µM): 0.81
- relative viability ([19]; first compound 0.000632 µM): 1.15
- relative viability ([19]; first compound 0.002 µM): 0.812
- relative viability ([19]; first compound 0.006325 µM): 0.723
- relative viability ([19]; first compound 0.02 µM): 0.423

Compound: Cc1sc2c(c1C)C(c1ccc(Cl)cc1)=N[C@@H](CC(=O)OC(C)(C)C)c1nnc(C)n1-2 [JQ1] + CC1(C)CCC(c2ccc(Cl)cc2)=C(CN2CCN(c3ccc(C(=O)NS(=O)(=O)c4ccc(N[C@H](CCN5CCOCC5)CSc5ccccc5)c(S(=O)(=O)C(F)(F)F)c4)cc3)CC2)C1 [Navitoclax] (partner 0.5 µM)
- relative viability ([1]; first compound 0.04 µM): 1.1
- relative viability ([1]; first compound 0.1265 µM): 1.19
- relative viability ([1]; first compound 0.4 µM): 0.905
- relative viability ([1]; first compound 1.265 µM): 0.404
- relative viability ([1]; first compound 4 µM): 0.297
- relative viability ([2]; first compound 0.04 µM): 0.944
- relative viability ([2]; first compound 0.1265 µM): 0.957
- relative viability ([2]; first compound 0.4 µM): 0.937
- relative viability ([2]; first compound 1.265 µM): 0.672
- relative viability ([2]; first compound 4 µM): 0.303
- relative viability ([3]; first compound 0.04 µM): 0.782
- relative viability ([3]; first compound 0.1265 µM): 0.691
- relative viability ([3]; first compound 0.4 µM): 0.571
- relative viability ([3]; first compound 1.265 µM): 0.316
- relative viability ([3]; first compound 4 µM): 0.286
- relative viability ([4]; first compound 0.04 µM): 0.964
- relative viability ([4]; first compound 0.1265 µM): 0.975
- relative viability ([4]; first compound 0.4 µM): 0.863
- relative viability ([4]; first compound 1.265 µM): 0.731
- relative viability ([4]; first compound 4 µM): 0.29
- relative viability ([5]; first compound 0.04 µM): 0.781
- relative viability ([5]; first compound 0.1265 µM): 0.567
- relative viability ([5]; first compound 0.4 µM): 0.698
- relative viability ([5]; first compound 1.265 µM): 0.419
- relative viability ([5]; first compound 4 µM): 0.198
- relative viability ([6]; first compound 0.04 µM): 1.09
- relative viability ([6]; first compound 0.1265 µM): 1.11
- relative viability ([6]; first compound 0.4 µM): 1.1
- relative viability ([6]; first compound 1.265 µM): 0.692
- relative viability ([6]; first compound 4 µM): 0.608
- relative viability ([9]; first compound 0.04 µM): 1.01
- relative viability ([9]; first compound 0.1265 µM): 0.991
- relative viability ([9]; first compound 0.4 µM): 0.922
- relative viability ([9]; first compound 1.265 µM): 0.59
- relative viability ([9]; first compound 4 µM): 0.455
- relative viability ([10]; first compound 0.04 µM): 1.01
- relative viability ([10]; first compound 0.1265 µM): 1.01
- relative viability ([10]; first compound 0.4 µM): 1.07
- relative viability ([10]; first compound 1.265 µM): 0.552
- relative viability ([10]; first compound 4 µM): 0.511
- relative viability ([11]; first compound 0.04 µM): 0.436
- relative viability ([11]; first compound 0.1265 µM): 0.453
- relative viability ([11]; first compound 0.4 µM): 0.291
- relative viability ([11]; first compound 1.265 µM): 0.209
- relative viability ([11]; first compound 4 µM): 0.252
- relative viability ([12]; first compound 0.04 µM): 0.928
- relative viability ([12]; first compound 0.1265 µM): 0.819
- relative viability ([12]; first compound 0.4 µM): 0.701
- relative viability ([12]; first compound 1.265 µM): 0.525
- relative viability ([12]; first compound 4 µM): 0.439
- relative viability ([13]; first compound 0.04 µM): 1.02
- relative viability ([13]; first compound 0.1265 µM): 0.671
- relative viability ([13]; first compound 0.4 µM): 0.499
- relative viability ([13]; first compound 1.265 µM): 0.0782
- relative viability ([13]; first compound 4 µM): 0.0465
- relative viability ([15]; first compound 0.04 µM): 0.656
- relative viability ([15]; first compound 0.4 µM): 0.708
- relative viability ([15]; first compound 1.265 µM): 0.622
- relative viability ([15]; first compound 4 µM): 0.31
- relative viability ([16]; first compound 0.04 µM): 0.834
- relative viability ([16]; first compound 0.1265 µM): 0.684
- relative viability ([16]; first compound 0.4 µM): 0.54
- relative viability ([16]; first compound 1.265 µM): 0.528
- relative viability ([16]; first compound 4 µM): 0.408
- relative viability ([17]; first compound 0.04 µM): 0.87
- relative viability ([17]; first compound 0.1265 µM): 0.972
- relative viability ([17]; first compound 0.4 µM): 0.85
- relative viability ([17]; first compound 1.265 µM): 0.52
- relative viability ([17]; first compound 4 µM): 0.476
- relative viability ([20]; first compound 0.04 µM): 1.29
- relative viability ([20]; first compound 0.1265 µM): 1.07
- relative viability ([20]; first compound 0.4 µM): 1.12
- relative viability ([20]; first compound 1.265 µM): 0.477
- relative viability ([20]; first compound 4 µM): 0.264
- relative viability ([18]; first compound 0.04 µM): 0.867
- relative viability ([18]; first compound 0.1265 µM): 1.06
- relative viability ([18]; first compound 0.4 µM): 0.981
- relative viability ([18]; first compound 1.265 µM): 0.275
- relative viability ([18]; first compound 4 µM): 0.33
- relative viability ([19]; first compound 0.04 µM): 1.17
- relative viability ([19]; first compound 0.1265 µM): 1.03
- relative viability ([19]; first compound 0.4 µM): 0.421
- relative viability ([19]; first compound 1.265 µM): 0.236
- relative viability ([19]; first compound 4 µM): 0.23
